Test results taken from patent US8071581B2, “Triazolopyridazine protein kinase modulators” (SGX Pharmaceuticals, Inc., priority 2006, dated 2011).

Columns and labels:
[1] = target: MET kinase (c-MET), kinase domain of human Met (Homo sapiens, UniProt P08581); assay: MET luminescence-based enzyme assay (Kinase-Glo)
GTL16 = GTL16 cell assay (EC50); format: cell-based; conditions: Homo sapiens, GTL 16
GTL16 tumors = assay: GTL16 tumor xenograft model, tumor growth inhibition; format: in vivo, female athymic nude mice; conditions: for decrease of mean tumor volume compared to vehicle-treated group: last day of treatment
Procedure: GTL16 Tumor Xenograft Model
Female athymic nude mice (nu/nu from Harlan) were 6-8 weeks old with a body weight range of 18-22 g at the beginning of the study. The animals had free access to food and water throughout the study. The mice were housed on irradiated Alpha-dri® Bed-O-Cobs® Laboratory Animal Bedding in static micro isolator caging on a 12-hour light cycle at 70-74° F. and 40-60% humidity. All procedures involving animals were conducted in compliance with the NIH Guide for the Care and Use of Laboratory Animals and all protocols were approved by an Internal Animal Care and Use Committee (IACUC).
Xenografts were initiated from GTL-16 tumor cells cultured and maintained by an internal Cell Biology Department. Each test mouse received a subcutaneous injection of 4×10^6 cells suspended in 100 μL of serum free RPMI media. Tumors were randomized into treatment groups on Day 5 when the average tumor size reached approximately 150 mm^3. Each dose groups contained n=5 mice. Tumor volume was calculated using the formula: Tumor Volume=(w^2×l)/2, where w=width and l=length in mm of the tumor. Tumor weight may be estimated with the assumption that 1 mg is equivalent to 1 mm^3 of tumor volume.
Tumor Growth Inhibition (TGI) Analysis
TGI was calculated from the difference between the mean tumor volumes of vehicle-treated and drug-treated mice, expressed as a percentage.
The MTV is defined as the mean tumor volume (MTV) for the number of animals, n, remaining in the study on that day.

Chain of MET kinase (c-MET), kinase domain of human Met (P08581 1078-1345 limits assumed): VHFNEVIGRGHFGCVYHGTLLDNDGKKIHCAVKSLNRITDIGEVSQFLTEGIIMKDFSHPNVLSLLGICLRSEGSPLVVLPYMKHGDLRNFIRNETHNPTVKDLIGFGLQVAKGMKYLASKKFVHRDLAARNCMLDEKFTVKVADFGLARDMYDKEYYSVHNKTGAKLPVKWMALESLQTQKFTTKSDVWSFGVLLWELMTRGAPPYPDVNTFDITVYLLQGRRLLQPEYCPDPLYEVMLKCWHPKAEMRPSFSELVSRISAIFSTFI

Structure (SMILES) | IC50 [1] [nM] | EC50 (GTL16; Table 2) [nM] | decrease of mean tumor volume compared to vehicle-treated group (GTL16 tumors; 1 mg/kg PO Q12H for 14.5 consecutive days, p=0.0079) [%] | decrease of mean tumor volume compared to vehicle-treated group (GTL16 tumors; 3 mg/kg PO Q12H for 14.5 consecutive days, p<0.0001) [%] | decrease of mean tumor volume compared to vehicle-treated group (GTL16 tumors; 10 mg/kg PO Q12H for 14.5 consecutive days, p<0.0001) [%] | decrease of mean tumor volume compared to vehicle-treated group (GTL16 tumors; 30 mg/kg PO Q12H for 14.5 consecutive days, p<0.0001) [%] | EC50 (GTL16; Table 1) [nM] | decrease of mean tumor volume compared to vehicle-treated group (GTL16 tumors; 3 mg/kg PO BID for 14 consecutive days, p<0.2743) [%] | decrease of mean tumor volume compared to vehicle-treated group (GTL16 tumors; 50 mg/kg IP BID for 14 consecutive days, p<0.0036) [%] | inhibition of growth of GTL16 tumors grown subcutaneously (GTL16 tumors; IP dose 50 mg/kg BID, 14 consecutive days)
Cc1ccc2nnc(Cc3ccc4ncc(-c5cnn(C)c5)cc4c3)n2n1 [compound 124, 3-(1-Methyl-1H-pyrazol-4-yl)-6-(6-methyl-[1,2,4]triazolo[4,3-b]pyridazin-3-ylmethyl)-quinoline] | < 100 | < 100 | 32 | 55 | 72 | 79 | – | – | – | –
CNC(=O)c1ccc(-c2ccc3nnc(Cc4ccc5ncccc5c4)n3n2)cc1F [compound 30] | < 100 | – | – | – | – | – | < 100 | 27 | 89 | statistically significant inhibition
